The values below are quoted from earlier work in US6416998B1, “Plasmid encoding a modified steroid hormone” (Baylor College of Medicine, priority 1992, dated 2002).

Structures are written as SMILES.

What all share (settings): cited from earlier work
Series [1] has as its target T1, human progesterone receptor (Homo sapiens, UniProt P06401).
T1 sequence (P06401 1-933): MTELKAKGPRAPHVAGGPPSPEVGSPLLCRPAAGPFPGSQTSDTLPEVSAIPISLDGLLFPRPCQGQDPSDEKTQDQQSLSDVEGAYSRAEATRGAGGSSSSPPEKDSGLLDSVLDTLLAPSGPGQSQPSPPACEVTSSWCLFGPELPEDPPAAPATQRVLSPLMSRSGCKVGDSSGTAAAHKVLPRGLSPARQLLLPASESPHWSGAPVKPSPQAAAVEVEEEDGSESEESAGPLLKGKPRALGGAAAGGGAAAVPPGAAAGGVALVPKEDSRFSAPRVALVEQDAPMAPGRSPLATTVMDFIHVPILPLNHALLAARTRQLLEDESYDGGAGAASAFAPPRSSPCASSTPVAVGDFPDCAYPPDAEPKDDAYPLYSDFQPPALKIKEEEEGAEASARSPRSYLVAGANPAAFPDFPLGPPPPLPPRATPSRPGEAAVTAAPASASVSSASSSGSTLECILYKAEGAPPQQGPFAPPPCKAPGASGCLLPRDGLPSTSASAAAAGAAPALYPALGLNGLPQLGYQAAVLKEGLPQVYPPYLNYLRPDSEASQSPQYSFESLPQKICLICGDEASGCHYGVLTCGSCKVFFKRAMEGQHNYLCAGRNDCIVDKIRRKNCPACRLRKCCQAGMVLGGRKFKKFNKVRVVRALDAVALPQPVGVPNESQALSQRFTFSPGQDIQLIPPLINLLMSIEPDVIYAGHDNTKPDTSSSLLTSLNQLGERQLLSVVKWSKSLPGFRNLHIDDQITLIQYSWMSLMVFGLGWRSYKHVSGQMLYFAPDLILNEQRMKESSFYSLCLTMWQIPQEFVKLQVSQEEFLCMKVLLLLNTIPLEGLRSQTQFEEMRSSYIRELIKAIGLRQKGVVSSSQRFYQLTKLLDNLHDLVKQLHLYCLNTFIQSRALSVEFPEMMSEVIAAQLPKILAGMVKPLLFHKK

Series [2] deals with T2, rat progesterone receptor (Rattus norvegicus, UniProt Q63449).
T2 sequence (Q63449 1-923): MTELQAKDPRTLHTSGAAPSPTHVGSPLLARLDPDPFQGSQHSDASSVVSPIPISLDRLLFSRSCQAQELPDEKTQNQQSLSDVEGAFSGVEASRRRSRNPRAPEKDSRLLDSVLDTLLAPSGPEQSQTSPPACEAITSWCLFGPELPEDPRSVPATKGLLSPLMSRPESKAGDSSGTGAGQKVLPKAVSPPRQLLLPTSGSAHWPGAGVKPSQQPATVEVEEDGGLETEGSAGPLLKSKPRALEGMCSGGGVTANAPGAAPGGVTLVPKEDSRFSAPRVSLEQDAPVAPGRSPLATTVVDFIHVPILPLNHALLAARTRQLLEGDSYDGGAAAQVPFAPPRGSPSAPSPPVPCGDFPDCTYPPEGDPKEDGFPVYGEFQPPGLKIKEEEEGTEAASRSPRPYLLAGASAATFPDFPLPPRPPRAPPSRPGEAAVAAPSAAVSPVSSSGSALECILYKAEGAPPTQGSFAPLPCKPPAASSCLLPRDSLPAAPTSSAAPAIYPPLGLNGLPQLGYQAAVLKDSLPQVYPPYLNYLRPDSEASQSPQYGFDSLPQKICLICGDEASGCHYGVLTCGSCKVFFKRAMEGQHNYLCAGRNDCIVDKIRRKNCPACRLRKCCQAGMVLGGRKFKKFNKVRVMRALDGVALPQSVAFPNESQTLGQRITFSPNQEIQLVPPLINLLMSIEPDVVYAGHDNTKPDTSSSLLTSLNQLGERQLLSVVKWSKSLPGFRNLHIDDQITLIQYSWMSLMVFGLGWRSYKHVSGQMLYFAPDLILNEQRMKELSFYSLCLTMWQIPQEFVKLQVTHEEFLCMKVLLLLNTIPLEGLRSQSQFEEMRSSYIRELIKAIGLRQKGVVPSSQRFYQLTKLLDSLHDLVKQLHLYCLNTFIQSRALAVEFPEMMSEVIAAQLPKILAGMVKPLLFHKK

In series [3] the target is T3, chicken progesterone receptor (Gallus gallus, UniProt P07812).
T3 sequence (P07812 1-786): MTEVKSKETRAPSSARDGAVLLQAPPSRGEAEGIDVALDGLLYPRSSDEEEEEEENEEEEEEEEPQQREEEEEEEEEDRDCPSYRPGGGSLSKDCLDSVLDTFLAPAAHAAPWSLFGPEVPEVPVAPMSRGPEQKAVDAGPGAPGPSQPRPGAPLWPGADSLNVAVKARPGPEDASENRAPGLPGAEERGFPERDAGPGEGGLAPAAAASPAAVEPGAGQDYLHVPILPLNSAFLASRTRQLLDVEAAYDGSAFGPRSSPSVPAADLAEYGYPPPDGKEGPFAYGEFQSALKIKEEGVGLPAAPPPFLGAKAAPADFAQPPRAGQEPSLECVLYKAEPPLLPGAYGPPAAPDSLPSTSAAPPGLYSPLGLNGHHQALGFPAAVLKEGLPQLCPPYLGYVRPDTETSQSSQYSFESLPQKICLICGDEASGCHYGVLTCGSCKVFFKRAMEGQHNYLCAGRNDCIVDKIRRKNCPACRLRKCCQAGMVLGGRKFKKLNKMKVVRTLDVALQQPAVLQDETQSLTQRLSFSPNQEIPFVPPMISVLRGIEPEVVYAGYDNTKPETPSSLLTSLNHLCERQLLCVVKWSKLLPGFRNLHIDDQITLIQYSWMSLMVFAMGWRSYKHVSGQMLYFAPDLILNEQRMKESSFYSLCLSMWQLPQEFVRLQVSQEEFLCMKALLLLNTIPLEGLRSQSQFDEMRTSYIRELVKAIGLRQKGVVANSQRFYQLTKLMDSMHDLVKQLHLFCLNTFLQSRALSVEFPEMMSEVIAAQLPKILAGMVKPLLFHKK

A further series has as its target T4, Vitamin D receptor (Homo sapiens, UniProt P11473).
T4 sequence (P11473 1-427): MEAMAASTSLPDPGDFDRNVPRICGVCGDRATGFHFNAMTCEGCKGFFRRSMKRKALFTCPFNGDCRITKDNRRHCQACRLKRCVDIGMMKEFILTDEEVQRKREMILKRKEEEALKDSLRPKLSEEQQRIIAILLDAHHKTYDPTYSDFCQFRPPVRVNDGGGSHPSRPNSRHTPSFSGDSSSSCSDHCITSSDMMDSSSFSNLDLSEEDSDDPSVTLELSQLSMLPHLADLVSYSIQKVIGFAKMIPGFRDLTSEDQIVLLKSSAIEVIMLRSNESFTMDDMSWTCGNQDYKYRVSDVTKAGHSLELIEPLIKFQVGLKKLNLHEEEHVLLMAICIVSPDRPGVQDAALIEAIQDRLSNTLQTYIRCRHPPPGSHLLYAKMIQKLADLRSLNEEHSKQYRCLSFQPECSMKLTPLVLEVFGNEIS

Turning to `CC(=O)[C@H]1CC[C@H]2[C@@H]3CC[C@H]4CC(=O)CC[C@]4(C)[C@H]3CC[C@]12C` [5α-pregnane-3,20-dione], the results for the binding entry in series [1], in series [2] and in series [3] were “does not bind or binds very poorly”, “binds extremely well” and “binds extremely well”, respectively.
`C=C1CC[C@H](O)C/C1=C/C=C1\CCC[C@]2(C)[C@@H]([C@H](C)CCC(O)C(C)(C)O)CC[C@@H]12` (stereo partly shown) [24,25-dihydroxy-Vitamin D]: at Vitamin D receptor, the receptor activation entry is “does not”.
